Data as given in patent US11439633B2, “Tetrahydroquinoline derivatives as P2X7 receptor antagonists” (RaQualia Pharma Inc., priority 2017, dated 2022).

What was measured:
human P2X7 = human P2X7 (Homo sapiens (Human), UniProt Q99572); assay: Human P2X7 functional assay (Ca2+ influx, Fluo-4, FDSS, BzATP activation); type: cell-based; conditions: antagonistic activity with respect to the human P2X7 receptor; BzATP final concentration 80 microM; 7-point dose-response
Protocol: Human P2X7 Functional Assay
(§1) The functional activity of compounds was determined by measuring changes in intracellular calcium concentration using a Ca^2+-sensitive fluorescent dye, Fluo-4 (Molecular Probes). The changes in fluorescent signal were monitored by the cell imaging technology by Hamamatsu Photonics's Functional Drug Screening System (FDSS). Increases in intracellular Ca^2+ concentration were readily detected upon activation with BzATP.
(§2) HEK293 cells stably expressing human P2X7 (GenBank accession number BC011913) carrying a C-terminal FLAG tag were grown in T225 flasks, in a 5% CO2 humidified incubator to about 80% confluence. Media composition consisted of Dulbecco's Modified Eagle Medium (high glucose), 10% fetal bovine serum ([…]), 100 units/microM Penicillin, 100 microg/mL Streptomycin and 250 microg/mL Geneticine.
1. Plate-out HEK293-human P2X7 cells (40 microL medium containing 10,000 cells per well) into poly-D-lysine coated 384-well plates (Corning) at 24 h prior to assay.
2. Incubate at 37° C. in 5% CO2.
3. Incubate the plate at 37° C. in 5% CO2 for 1 h.
5. Test compounds were prepared at 100× the test concentration in DMSO by serial dilution with Biomek-FX liquid handling instrument. 33× diluted compound solutions in assay buffer were prepared in intermediate compound plate with Biomek-NX liquid handling instrument. A further 3× dilution occurred in below steps 6 and 7.
6. Add 20 microL of 33× diluted compound solutions into each well and leave the plate for 10 min under the dark at room temperature.
7. Measure activity by FDSS as follows: • Set the assay plate on the stacker of FDSS. • Start the detection of fluorescence intensity at 540 nm by 480 nm exicitation. • After 30 seconds, add 20 microL of assay buffer containing 240 microM BzATP (final concentration 80 microM).
IC50 values for compounds of the present invention were determined from 7-point dose-response studies. Curves were generated using the average of duplicate wells for each data point. Finally, the IC50 values are calculated with the best-fit dose curve determined by XLfit (ID Business Solutions Ltd.).

rat P2X7 = rat P2X7 (Rattus norvegicus (Rat), UniProt Q64663); assay: Rat P2X7 functional assay (Ca2+ influx, Fluo-4, FDSS, BzATP activation); type: cell-based; conditions: HEK293 cells stably expressing rat P2X7; BzATP final 10 microM; read-out: Antagonistic activities with respect to the rat P2X7 receptor (IC50)
Protocol: Rat P2X7 Functional Assay
as §1
as §2, with “rat” for “human”, “NM_019256)” for “BC011913) carrying a C-terminal FLAG tag”, “Corning CellBIND cell culture” for “T225”, “units/[…]” for “units/microM”
1. […]
7. Measure activity by FDSS as follows: • Set the assay plate on the stacker of FDSS. • Start the detection of fluorescence intensity at 540 nm by 480 nm exicitation. • After 30 seconds, add 20 microL of assay buffer containing 30 microM BzATP (final 10 microM).
IC50 values for compounds of the present invention were determined from 7-point dose-response studies. […] Finally, the IC50 values are calculated with the best-fit dose curve determined by XLfit (ID Business Solutions Ltd.).

Sequence of human P2X7 (Q99572 whole entry): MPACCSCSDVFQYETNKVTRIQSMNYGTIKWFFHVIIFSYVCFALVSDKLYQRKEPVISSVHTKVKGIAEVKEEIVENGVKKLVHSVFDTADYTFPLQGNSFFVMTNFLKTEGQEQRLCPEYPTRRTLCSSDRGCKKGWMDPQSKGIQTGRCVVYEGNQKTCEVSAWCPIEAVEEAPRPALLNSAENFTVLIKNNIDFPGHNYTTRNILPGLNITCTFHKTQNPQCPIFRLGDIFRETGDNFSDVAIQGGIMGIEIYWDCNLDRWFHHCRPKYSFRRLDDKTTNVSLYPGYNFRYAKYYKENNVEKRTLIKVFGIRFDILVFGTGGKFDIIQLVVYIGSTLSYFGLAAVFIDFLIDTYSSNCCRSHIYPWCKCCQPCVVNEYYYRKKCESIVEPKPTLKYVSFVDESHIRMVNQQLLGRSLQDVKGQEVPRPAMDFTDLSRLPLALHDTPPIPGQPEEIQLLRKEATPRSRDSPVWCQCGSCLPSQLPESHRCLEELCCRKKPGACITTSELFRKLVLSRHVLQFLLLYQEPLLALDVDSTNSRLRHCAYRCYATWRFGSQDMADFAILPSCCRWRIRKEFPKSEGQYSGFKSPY
Sequence of rat P2X7 (Q64663 whole entry): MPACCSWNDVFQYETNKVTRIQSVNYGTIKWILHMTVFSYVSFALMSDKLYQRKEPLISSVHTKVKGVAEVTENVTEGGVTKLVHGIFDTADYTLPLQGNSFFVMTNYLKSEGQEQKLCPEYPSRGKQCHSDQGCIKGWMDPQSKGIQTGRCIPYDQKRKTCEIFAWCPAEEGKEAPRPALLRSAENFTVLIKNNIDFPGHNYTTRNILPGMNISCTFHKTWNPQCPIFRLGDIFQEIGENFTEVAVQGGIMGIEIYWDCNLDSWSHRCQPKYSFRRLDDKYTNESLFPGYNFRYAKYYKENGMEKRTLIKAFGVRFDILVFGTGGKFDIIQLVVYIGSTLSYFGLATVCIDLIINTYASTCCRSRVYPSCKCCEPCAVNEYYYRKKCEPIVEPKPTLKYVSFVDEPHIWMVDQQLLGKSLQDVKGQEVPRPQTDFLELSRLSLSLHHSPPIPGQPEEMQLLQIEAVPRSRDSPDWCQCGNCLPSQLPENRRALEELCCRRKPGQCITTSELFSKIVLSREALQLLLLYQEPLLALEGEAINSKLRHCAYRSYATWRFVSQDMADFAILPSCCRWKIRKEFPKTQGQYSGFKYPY

Row | IC50 (human P2X7) [nM] | IC50 (rat P2X7) [nM] | SMILES
1 | < 50 | – | O=C(NCCc1ccc(Cl)cc1Cl)[C@]1(F)CC[C@H](O)c2ncccc21 [Example 191, (5S,8S)-N-(2,4-dichloro-phenethyl)-5-fluoro-8-hydroxy-5,6,7,8-tetrahydro-quinoline-5-carboxamide]
2 | < 50 | – | O=C(NCc1ccc(F)c(F)c1Cl)[C@]1(F)CC[C@H](O)c2ncccc21 [Example 174, (5S,8S)-N-(2-chloro-3,4-difluorobenzyl)-5-fluoro-8-hydroxy-5,6,7,8-tetra-hydroquinoline-5-carboxamide]
3 | < 50 | – | C[C@]1(O)CC[C@@](F)(C(=O)NCc2c(F)cc(Cl)cc2Cl)c2cccnc21 [Example 265, (5S,8S)-N-(2,4-dichloro-6-fluorobenzyl)-5-fluoro-8-hydroxy-8-methyl-5,6,7,8-tetrahydroquinoline-5-carboxamide]
4 | < 50 | – | O=C(NCc1cccc(C(F)(F)F)c1F)[C@]1(F)CC[C@H](O)c2ncccc21 [Example 175, (5S,8S)-5-fluoro-N-(2-fluoro-3-(trifluoromethyl)benzyl)-8-hydroxy-5,6,7,8-tetrahydroquinoline-5-carboxamide]
5 | < 50 | – | Cc1cc(Cl)cc(Cl)c1CNC(=O)[C@@]1(F)CC[C@@H](O)c2ncccc21 [Example 126, (5R,8R)-N-(2,4-dichloro-6-methylbenzyl)-5-fluoro-8-hydroxy-5,6,7,8-tetrahydroquinoline-5-carboxamide]
6 | < 50 | – | Cc1cc(Cl)cc(Cl)c1CNC(=O)[C@]1(F)CC[C@H](O)c2ncccc21 [Example 127, (5S,8S)-N-(2,4-dichloro-6-methylbenzyl)-5-fluoro-8-hydroxy-5,6,7,8-tetrahydroquinoline-5-carboxamide]
7 | < 50 | – | CS(=O)(=O)C1CC[C@@](F)(C(=O)NCc2ccc(Cl)cc2Cl)c2cccnc21 (stereo partly drawn) [Example 350, (5S)-N-(2,4-dichlorobenzyl)-5-fluoro-8-(methylsulfonyl)-5,6,7,8-tetrahydroquinoline-5-carboxamide]
8 | < 50 | – | O=C(NCc1c(Cl)cc(Cl)cc1CO)C1CCC(O)c2ncccc21 (stereo not drawn) [Example 9, N-(2,4-dichloro-6-(hydroxymethyl)benzyl)-8-hydroxy-5,6,7,8-tetrahydroquinoline-5-carboxamide]
9 | < 50 | – | O=C(NCc1c(F)cccc1C(F)(F)F)[C@]1(F)CC[C@H](O)c2ncccc21 [Example 186, (5S,8S)-5-fluoro-N-(2-fluoro-6-(trifluoromethyl)benzyl)-8-hydroxy-5,6,7,8-tetrahydroquinoline-5-carboxamide]
10 | < 50 | – | C[C@]1(O)CC[C@@](F)(C(=O)NCc2c(F)cc(F)cc2Cl)c2cccnc21 [Example 266, (5S,8S)-N-(2-chloro-4,6-difluorobenzyl)-5-fluoro-8-hydroxy-8-methyl-5,6,7,8-tetrahydroquinoline-5-carboxamide]
11 | < 50 | – | O=C(NCc1c(F)cc(Cl)cc1Cl)[C@]1(F)CC[C@H](O)c2ncccc21 [Example 152, (5S,8S)-N-(2,4-dichloro-6-fluorobenzyl)-5-fluoro-8-hydroxy-5,6,7,8-tetrahydroquinoline-5-carboxamide]
12 | – | < 1000 | Cc1cc(Cl)cc(Cl)c1CNC(=O)[C@@H]1CC[C@H](O)c2ncccc21 [Example 64, (5R,8S)-N-(2,4-dichloro-6-methylbenzyl)-8-hydroxy-5,6,7,8-tetrahydroquinoline-5-carboxamide]
13 | < 50 | – | O=C(NCc1cc(Br)ccc1Cl)[C@]1(F)CC[C@H](O)c2ncccc21 [Example 181, (5S,8S)-N-(5-bromo-2-chlorobenzyl)-5-fluoro-8-hydroxy-5,6,7,8-tetra-hydroquinoline-5-carbox-amide]
14 | < 50 | – | C[C@]1(O)CC[C@@](F)(C(=O)NC2CC2c2ccc(Cl)cc2Cl)c2cccnc21 (stereo partly drawn) [Example 273, (5S,8S)-N-((trans)-2-(2,4-dichlorophenyl)cyclopropyl)-5-fluoro-8-hydroxy-8-methyl-5,6,7,8-tetrahydro-quinoline-5-carboxamide]
15 | < 50 | – | O=C(NCc1ccc(F)cc1C(F)(F)F)[C@]1(F)CC[C@H](O)c2ncccc21 [Example 144, (5S,8S)-5-fluoro-N-(4-fluoro-2-(trifluoromethyl)benzyl)-8-hydroxy-5,6,7,8-tetrahydroquinoline-5-carboxamide]
16 | < 50 | – | Cc1cccc(Cl)c1CNC(=O)[C@]1(F)CC[C@H](O)c2ncccc21 [Example 161, (5S,8S)-N-(2-chloro-6-methylbenzyl)-5-fluoro-8-hydroxy-5,6,7,8-tetra-hydroquinoline-5-carbox-amide]
17 | < 50 | – | C[C@]1(O)CC[C@@](F)(C(=O)NCc2ccc(Cl)c(F)c2F)c2cccnc21 [Example 267, (5S,8S)-N-(4-chloro-2,3-difluorobenzyl)-5-fluoro-8-hydroxy-8-methyl-5,6,7,8-tetrahydroquinoline-5-carboxamide]
18 | < 50 | – | CO[C@H]1CC[C@@](F)(C(=O)NCc2c(F)cc(Cl)cc2Cl)c2cccnc21 [Example 335, (5S,8S)-N-(2,4-dichloro-6-fluorobenzyl)-5-fluoro-8-methoxy-5,6,7,8-tetrahydroquinoline-5-carboxamide]
